The structures appear in SMILES notation.

The target of experiment [1] is T1, Peroxisome proliferator-activated receptor gamma (Homo sapiens, UniProt P37231).
T1 sequence (P37231 whole entry): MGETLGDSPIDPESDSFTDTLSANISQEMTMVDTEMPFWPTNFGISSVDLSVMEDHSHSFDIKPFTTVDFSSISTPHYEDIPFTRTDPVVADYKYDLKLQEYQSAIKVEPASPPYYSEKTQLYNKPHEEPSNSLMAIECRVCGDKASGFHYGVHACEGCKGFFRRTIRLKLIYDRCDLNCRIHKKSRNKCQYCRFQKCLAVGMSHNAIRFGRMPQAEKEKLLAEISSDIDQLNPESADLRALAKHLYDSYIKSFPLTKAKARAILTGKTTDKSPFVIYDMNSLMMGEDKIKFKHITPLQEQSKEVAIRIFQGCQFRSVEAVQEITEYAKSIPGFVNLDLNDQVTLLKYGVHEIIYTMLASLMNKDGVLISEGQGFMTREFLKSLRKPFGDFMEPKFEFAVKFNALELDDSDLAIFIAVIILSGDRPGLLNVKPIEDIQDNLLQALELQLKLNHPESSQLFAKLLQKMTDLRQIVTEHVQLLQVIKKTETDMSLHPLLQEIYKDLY
In kind it is functional.

Experiment [2] has as its target T2, Muscarinic acetylcholine receptor M5 (Homo sapiens, UniProt P08912).
T2 sequence (P08912 whole entry): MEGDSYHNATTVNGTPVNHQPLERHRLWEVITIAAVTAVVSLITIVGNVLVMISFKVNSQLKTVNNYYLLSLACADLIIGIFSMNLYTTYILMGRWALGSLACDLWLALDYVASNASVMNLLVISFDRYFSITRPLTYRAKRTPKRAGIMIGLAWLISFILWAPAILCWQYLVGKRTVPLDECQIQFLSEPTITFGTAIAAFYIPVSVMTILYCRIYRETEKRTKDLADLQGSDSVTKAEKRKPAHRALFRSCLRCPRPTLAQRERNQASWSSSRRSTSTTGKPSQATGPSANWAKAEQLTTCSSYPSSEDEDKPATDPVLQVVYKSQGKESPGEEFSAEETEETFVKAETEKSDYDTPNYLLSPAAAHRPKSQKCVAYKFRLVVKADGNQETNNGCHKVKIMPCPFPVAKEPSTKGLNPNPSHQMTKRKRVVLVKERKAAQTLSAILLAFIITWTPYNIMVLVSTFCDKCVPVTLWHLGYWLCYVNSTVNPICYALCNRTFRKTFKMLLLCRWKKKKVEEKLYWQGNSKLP

The target in another experiment is D(1B) dopamine receptor (Homo sapiens, UniProt P21918).
D(1B) dopamine receptor, sequence (P21918 whole entry): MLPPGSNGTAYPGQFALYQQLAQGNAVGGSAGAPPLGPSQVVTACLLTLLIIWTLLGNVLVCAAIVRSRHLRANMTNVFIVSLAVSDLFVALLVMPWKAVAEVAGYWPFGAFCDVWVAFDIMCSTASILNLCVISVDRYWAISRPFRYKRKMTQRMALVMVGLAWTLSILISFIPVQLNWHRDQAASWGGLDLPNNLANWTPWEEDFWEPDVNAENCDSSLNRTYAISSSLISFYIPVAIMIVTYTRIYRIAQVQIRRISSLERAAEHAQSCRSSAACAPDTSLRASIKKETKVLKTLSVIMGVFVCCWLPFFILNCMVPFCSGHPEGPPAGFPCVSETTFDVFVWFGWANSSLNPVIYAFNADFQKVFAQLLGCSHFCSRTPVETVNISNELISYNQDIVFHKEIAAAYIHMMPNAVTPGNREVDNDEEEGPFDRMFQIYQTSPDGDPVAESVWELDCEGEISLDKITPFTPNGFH
The target in experiment [3] is 5-hydroxytryptamine receptor 5A (Homo sapiens, UniProt P47898).
5-hydroxytryptamine receptor 5A, sequence (P47898 whole entry): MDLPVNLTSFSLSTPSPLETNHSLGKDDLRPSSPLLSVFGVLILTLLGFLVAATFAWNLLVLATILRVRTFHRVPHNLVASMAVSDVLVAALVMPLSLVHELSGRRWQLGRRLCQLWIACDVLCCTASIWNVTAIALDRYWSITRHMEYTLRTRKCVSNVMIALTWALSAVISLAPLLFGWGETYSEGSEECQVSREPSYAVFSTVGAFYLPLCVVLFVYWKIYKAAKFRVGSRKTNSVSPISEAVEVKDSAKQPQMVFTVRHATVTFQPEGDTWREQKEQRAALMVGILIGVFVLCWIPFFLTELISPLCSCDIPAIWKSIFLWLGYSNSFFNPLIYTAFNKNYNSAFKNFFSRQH
The target in experiment [4] is Rod cGMP-specific 3',5'-cyclic phosphodiesterase subunit alpha (Homo sapiens, UniProt P16499). In kind it is functional.
Rod cGMP-specific 3',5'-cyclic phosphodiesterase subunit alpha, sequence (P16499 whole entry): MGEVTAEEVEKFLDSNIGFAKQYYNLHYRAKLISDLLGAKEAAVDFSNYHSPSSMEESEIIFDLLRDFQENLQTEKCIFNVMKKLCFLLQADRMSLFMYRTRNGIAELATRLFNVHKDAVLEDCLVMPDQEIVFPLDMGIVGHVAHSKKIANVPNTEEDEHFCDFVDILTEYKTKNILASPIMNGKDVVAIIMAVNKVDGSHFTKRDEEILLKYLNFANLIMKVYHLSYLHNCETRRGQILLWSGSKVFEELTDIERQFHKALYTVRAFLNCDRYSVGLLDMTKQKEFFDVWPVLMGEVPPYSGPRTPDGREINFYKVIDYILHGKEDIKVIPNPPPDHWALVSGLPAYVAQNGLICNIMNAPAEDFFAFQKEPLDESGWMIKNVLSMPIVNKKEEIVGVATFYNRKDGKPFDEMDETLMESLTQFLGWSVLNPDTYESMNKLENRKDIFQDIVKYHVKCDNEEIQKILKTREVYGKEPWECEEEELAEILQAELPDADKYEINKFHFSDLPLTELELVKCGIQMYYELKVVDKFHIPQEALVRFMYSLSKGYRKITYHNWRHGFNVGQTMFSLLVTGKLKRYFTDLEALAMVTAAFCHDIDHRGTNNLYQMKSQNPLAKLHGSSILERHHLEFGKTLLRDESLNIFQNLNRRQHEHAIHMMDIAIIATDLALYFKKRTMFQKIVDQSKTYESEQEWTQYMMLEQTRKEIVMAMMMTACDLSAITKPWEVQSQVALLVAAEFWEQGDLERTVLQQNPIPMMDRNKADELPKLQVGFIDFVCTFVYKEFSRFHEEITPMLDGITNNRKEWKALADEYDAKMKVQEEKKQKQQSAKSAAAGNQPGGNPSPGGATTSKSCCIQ
The target of experiment [5] is 5-hydroxytryptamine receptor 2B (Homo sapiens, UniProt P41595).
5-hydroxytryptamine receptor 2B, sequence (P41595 whole entry): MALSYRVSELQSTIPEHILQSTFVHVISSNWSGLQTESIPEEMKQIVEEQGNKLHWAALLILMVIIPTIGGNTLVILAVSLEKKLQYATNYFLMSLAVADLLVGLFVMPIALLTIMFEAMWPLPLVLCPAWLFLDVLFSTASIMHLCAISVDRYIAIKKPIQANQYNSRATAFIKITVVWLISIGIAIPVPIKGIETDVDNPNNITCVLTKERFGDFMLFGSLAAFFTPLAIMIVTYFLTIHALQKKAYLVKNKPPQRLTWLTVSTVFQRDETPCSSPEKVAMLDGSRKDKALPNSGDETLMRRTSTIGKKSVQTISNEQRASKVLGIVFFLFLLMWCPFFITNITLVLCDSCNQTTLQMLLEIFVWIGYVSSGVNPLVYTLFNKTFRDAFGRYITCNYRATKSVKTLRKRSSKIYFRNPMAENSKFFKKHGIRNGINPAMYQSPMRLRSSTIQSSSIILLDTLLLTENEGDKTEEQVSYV
The target in experiment [6] is T3, Prostaglandin G/H synthase 1 (Rattus norvegicus, UniProt Q63921).
T3 sequence (Q63921 whole entry): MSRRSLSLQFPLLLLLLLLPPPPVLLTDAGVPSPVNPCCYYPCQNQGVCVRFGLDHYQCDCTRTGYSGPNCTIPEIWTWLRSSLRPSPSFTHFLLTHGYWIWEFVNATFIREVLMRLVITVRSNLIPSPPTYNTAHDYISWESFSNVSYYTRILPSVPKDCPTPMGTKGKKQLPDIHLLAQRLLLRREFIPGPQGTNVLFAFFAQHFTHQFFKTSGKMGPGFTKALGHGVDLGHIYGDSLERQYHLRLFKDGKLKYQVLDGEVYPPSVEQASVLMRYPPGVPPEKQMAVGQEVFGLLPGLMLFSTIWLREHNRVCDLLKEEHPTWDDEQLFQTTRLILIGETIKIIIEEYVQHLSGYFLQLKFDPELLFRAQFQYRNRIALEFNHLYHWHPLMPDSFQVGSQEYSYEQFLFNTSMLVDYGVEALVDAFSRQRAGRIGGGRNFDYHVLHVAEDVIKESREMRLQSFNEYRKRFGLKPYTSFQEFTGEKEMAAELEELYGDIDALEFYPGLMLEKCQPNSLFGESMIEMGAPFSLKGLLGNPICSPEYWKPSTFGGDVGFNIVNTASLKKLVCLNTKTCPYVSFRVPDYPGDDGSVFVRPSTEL
Type of experiment: functional.

Experiment [7] concerns the target Hydroxycarboxylic acid receptor 2 (Homo sapiens, UniProt Q8TDS4).
For experiment [8], the target named is Synaptic vesicular amine transporter (Rattus norvegicus, UniProt Q01827). In kind it is functional.
Synaptic vesicular amine transporter, sequence (Q01827 whole entry): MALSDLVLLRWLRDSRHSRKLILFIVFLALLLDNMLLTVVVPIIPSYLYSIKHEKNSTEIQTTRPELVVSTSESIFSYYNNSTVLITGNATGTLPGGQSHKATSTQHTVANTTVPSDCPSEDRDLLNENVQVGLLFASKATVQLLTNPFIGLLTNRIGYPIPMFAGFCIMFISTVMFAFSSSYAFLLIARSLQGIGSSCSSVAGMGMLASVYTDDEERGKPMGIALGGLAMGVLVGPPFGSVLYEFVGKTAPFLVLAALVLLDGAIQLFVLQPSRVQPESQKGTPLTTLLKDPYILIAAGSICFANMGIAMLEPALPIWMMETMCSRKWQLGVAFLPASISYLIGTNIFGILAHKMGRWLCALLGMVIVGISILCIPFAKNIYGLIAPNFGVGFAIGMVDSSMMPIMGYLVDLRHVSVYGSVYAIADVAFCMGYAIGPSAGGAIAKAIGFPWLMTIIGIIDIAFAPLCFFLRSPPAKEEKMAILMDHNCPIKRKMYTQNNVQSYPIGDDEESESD
A further experiment addresses D(1A) dopamine receptor (Homo sapiens, UniProt P21728). In kind it is functional, cell-based.
Experiment [9] addresses T4, Thromboxane A2 receptor (Homo sapiens, UniProt P21731).
T4 sequence (P21731 whole entry): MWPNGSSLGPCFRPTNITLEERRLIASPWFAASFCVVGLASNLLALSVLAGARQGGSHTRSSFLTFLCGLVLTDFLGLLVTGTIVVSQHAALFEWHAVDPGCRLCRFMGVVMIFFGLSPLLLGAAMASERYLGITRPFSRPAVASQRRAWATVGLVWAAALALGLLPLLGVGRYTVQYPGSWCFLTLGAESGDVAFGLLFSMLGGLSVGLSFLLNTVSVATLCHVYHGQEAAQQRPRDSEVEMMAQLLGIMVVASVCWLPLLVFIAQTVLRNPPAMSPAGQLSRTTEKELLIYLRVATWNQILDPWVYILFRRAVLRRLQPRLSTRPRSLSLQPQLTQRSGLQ
Type of experiment: functional.

Experiment [10] deals with Vascular endothelial growth factor receptor 2 (Homo sapiens, UniProt P35968). Type of experiment: functional.
Vascular endothelial growth factor receptor 2, sequence (P35968 whole entry): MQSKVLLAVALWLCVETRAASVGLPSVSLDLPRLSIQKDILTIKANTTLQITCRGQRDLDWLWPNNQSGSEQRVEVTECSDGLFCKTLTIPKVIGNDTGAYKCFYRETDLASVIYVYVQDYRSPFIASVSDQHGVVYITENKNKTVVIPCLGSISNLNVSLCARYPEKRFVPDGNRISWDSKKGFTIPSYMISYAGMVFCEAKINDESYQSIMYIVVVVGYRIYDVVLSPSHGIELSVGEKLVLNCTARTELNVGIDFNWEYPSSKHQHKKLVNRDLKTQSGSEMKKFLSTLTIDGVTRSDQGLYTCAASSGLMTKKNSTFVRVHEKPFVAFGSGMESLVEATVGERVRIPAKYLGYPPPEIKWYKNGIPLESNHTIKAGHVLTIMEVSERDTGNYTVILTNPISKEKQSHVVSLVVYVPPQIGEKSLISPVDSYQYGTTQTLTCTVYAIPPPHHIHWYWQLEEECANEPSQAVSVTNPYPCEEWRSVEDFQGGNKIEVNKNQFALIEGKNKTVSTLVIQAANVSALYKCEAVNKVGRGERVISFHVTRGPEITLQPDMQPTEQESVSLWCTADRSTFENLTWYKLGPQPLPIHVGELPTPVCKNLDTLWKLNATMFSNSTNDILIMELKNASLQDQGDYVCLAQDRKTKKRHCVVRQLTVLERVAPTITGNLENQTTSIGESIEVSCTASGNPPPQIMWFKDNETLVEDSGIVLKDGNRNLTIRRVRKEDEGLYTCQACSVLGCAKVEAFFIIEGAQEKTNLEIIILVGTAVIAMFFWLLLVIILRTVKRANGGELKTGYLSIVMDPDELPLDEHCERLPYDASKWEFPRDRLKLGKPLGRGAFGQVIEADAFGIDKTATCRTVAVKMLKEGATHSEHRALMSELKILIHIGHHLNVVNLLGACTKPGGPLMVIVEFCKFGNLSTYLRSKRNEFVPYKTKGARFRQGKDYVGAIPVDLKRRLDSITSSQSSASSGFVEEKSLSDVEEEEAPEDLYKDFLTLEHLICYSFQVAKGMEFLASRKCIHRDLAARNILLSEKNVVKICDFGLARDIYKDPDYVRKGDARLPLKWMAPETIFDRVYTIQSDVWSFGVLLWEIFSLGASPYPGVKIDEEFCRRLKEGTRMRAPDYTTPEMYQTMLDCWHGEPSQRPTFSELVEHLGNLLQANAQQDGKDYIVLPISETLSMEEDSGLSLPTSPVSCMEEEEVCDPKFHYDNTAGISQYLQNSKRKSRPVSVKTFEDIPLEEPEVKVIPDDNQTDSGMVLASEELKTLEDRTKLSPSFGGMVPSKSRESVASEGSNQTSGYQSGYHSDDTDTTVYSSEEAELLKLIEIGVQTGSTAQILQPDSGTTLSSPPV
The target in experiment [11] is T4, Thromboxane A2 receptor. Type of experiment: functional, cell-based.
Note: assay procedure not described here.

Hydroxycarboxylic acid receptor 2, sequence (Q8TDS4 whole entry): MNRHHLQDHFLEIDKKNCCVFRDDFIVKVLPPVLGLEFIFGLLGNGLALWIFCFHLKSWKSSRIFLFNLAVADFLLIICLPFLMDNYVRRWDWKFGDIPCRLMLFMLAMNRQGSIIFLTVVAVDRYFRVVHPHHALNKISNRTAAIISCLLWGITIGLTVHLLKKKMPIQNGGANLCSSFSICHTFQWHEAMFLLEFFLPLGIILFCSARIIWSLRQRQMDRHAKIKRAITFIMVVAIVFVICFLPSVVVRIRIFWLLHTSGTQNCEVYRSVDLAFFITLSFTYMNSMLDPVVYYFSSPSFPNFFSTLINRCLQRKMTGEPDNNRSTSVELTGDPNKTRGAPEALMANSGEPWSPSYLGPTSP
D(1A) dopamine receptor, sequence (P21728 whole entry): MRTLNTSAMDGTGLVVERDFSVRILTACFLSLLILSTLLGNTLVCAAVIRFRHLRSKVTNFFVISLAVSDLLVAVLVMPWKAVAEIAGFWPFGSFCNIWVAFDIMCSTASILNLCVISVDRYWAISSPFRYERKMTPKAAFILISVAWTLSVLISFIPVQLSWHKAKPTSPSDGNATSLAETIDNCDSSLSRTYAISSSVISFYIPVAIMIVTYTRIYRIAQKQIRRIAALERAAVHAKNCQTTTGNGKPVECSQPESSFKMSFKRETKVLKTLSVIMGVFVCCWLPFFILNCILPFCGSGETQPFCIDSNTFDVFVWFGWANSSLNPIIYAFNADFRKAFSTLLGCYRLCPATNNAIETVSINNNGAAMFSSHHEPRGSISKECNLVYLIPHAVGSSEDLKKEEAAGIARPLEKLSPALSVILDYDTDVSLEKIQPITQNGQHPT

Broadly, the AC50 is the concentration giving half of the maximal activity seen. A lower AC50 goes with greater potency. Consider `CN(C)C/C=C/C(=O)Nc1cc2c(Nc3ccc(F)c(Cl)c3)ncnc2cc1O[C@H]1CCOC1` [AFATINIB], for which, in experiment [1], the AC50 is > 30 µM.

Regarding `O=C(/C=C/c1cccc(S(=O)(=O)Nc2ccccc2)c1)NO` [BELINOSTAT], the AC50 (in [2]; on D(1B) dopamine receptor; in experiment [3]; in [4]) was > 10 µM each time. For the molecule `CC(Cc1cccc(C(F)(F)F)c1)NCCOC(=O)c1ccccc1` (stereo unspecified) [BENFLUOREX], the AC50 in experiment [5] came to 0.933 µM. This counts as sub-micromolar.

As for `CC(C)(Oc1ccc(CCNC(=O)c2ccc(Cl)cc2)cc1)C(=O)O` [BEZAFIBRATE], the AC50 in [1] is > 30 µM. Consider `CC(O)(CS(=O)(=O)c1ccc(F)cc1)C(=O)Nc1ccc(C#N)c(C(F)(F)F)c1` (stereo unspecified) [BICALUTAMIDE], for which the AC50 in [2] was > 10 µM; in [6] it was > 30 µM.

As to `O=C(O)COCCN1CCN(C(c2ccccc2)c2ccc(Cl)cc2)CC1` (stereo unspecified) [CETIRIZINE], the AC50 in experiment [7] is > 10 µM.

Take `CC(=O)O[C@]1(C(C)=O)CC[C@H]2[C@@H]3C=C(Cl)C4=CC(=O)[C@@H]5C[C@@H]5[C@]4(C)[C@H]3CC[C@@]21C` [CYPROTERONE ACETATE]: the AC50 in experiment [6] is > 30 µM. Regarding `CN[C@]1(c2ccccc2Cl)CCCCC1=O` [ESKETAMINE], the AC50 in experiment [8] was > 30 µM. As to `C[C@@H]1C[C@H]2[C@@H]3C[C@H](F)C4=CC(=O)C=C[C@]4(C)[C@@]3(F)[C@@H](O)C[C@]2(C)[C@@]1(OC(=O)c1ccco1)C(=O)SCF` [FLUTICASONE FUROATE], in experiment [2], the AC50 is > 10 µM. Consider `CNCCc1ccc(OC(=O)C(C)C)c(OC(=O)C(C)C)c1` [IBOPAMINE], for which, at D(1A) dopamine receptor, the AC50 is > 30 µM. Turning to `CN(C)CCCN1c2ccccc2CCc2ccccc21` [IMIPRAMINE], the AC50 is 0.33 µM in [2]; 8.33 µM on D(1B) dopamine receptor; 2.26 µM in experiment [3]; > 10 µM in [4]; 11.4 µM in experiment [8]. Turning to `OC[C@H]1O[C@@H](n2cnc3c2NC=NC[C@H]3O)C[C@@H]1O` [PENTOSTATIN], the AC50 in experiment [1] is > 30 µM. As for `CC(C)c1cccc(C(C)C)c1O` [PROPOFOL], the AC50 (at D(1A) dopamine receptor; in [1]; on Thromboxane A2 receptor [9]; in experiment [10]; at Thromboxane A2 receptor [11]) was > 30 µM in each case.

In the case of `CN[C@@H](C)[C@@H](O)c1ccccc1` [PSEUDOEPHEDRINE], the AC50 in experiment [7] was > 10 µM.
